According to US20170073337A1, “DIHYDROTHIAZINE AND DIHYDROOXAZINE DERIVATIVES HAVING BACE1 INHIBITORY ACTIVITY” (Shionogi & Co., Ltd., priority 2014, published 2017):
In brackets after ≈: the same amount, converted by molar mass. Read-outs that look alike come from different tables or passages of the source.

What was measured:
[1] = biological target: T1, CYP3A4 (Homo sapiens, UniProt P08684); test: CYP inhibition test (CYP3A4); format: in vitro ADME; conditions: pooled human liver microsomes; terfenadine hydroxylation
T1 construct: The commercially available pooled human liver microsomes are used as an enzyme resource; from tissue; host or cells: pooled human liver microsomes
How it was run: (§1)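 Pooled human liver microsomes (0.2 mg protein/mL) were incubated at 37 °C with NADPH, compound at 1, 5, 10, 20 μmol/L and marker substrates: tolbutamide 100 μmol/L (2C9), S-mephenytoin 50 μmol/L (2C19), dextromethorphan 5 μmol/L (2D6), terfenadine 1 μmol/L (3A4). Metabolites were measured by LC/MS/MS; IC50 came from logistic fitting against DMSO control.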

[2] = biological target: T2, CYP1A2 (Homo sapiens, UniProt P05177); test: CYP inhibition test (CYP1A2); format: in vitro ADME; conditions: pooled human liver microsomes; 7-ethoxyresorufin O-deethylation
T2 construct: The commercially available pooled human liver microsomes are used as an enzyme resource; from tissue; host or cells: pooled human liver microsomes
T2 sequence (P05177 1-516): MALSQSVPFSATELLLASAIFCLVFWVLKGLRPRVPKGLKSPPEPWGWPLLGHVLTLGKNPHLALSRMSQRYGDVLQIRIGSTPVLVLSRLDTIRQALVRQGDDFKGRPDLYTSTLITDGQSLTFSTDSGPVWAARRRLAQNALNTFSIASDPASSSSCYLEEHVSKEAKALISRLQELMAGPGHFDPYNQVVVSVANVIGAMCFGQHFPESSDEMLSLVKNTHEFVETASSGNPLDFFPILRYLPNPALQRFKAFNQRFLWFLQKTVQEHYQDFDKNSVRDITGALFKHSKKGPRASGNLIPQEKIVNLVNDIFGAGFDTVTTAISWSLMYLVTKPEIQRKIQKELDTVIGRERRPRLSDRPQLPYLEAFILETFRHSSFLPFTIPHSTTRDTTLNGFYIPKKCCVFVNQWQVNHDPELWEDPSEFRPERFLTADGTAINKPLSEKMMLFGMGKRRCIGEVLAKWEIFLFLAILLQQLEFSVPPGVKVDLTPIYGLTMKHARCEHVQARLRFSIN
How it was run: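 Inhibition of CYP1A2 was measured in commercially available pooled human liver microsomes (0.2 mg protein/mL) using 7-ethoxyresorufin O-deethylation with 0.5 μmol/L ethoxyresorufin. Test compound at 1, 5, 10, 20 μmol/L in […] Hepes buffer was incubated at 37° C. after NADPH addition; methanol/acetonitrile=1/1 (v/v) stopped the reaction, and resorufin was read fluorescently.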

[3] = Solubility test; format: physicochemical
How it was run: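 Dissolved concentration determined by LC/MS or SPE/MS (absolute calibration) in diluted filtrates, after 2 μL of 10 mmol/L DMSO stock was added to 198 μL JP 1st or JP 2nd fluid and equilibrated either 1 h with shaking at room temperature or 16 h standing at 25 °C.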

[4] = biological target: T3, CYP2C19 (Homo sapiens, UniProt P33261); test: CYP inhibition test (CYP2C19); format: in vitro ADME; conditions: pooled human liver microsomes; mephenytoin 4′-hydroxylation
T3 construct: The commercially available pooled human liver microsomes are used as an enzyme resource; from tissue; host or cells: pooled human liver microsomes
How it was run: as §1

[5] = Metabolic stability test; format: in vitro ADME; conditions: human liver microsomes, 37° C., 30 minutes, NADPH
How it was run: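 Parent compound was measured by LC/MS/MS or SPE/MS after a methanol/acetonitrile quench and reported as % remaining, with the 0 min sample set to 100%. Incubations ran 30 min at 37 °C in pH 7.4 Tris buffer containing pooled human liver microsomes at 0.5 mg protein/mL and 1 mmol/L NADPH.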

[6] = biological target: T4, human ether-a-go-go related gene (hERG) channel (Homo sapiens, UniProt Q12809); test: hERG test; format: cell-based; conditions: % inhibition of IKr tail peak current at 3 uM; CHO cells expressing hERG
T4 construct: expressed in transfected cells; host or cells: CHO cells
How it was run: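 Automated whole-cell patch clamp was run on CHO cells carrying human hERG, held at −80 mV. Current was recorded during the −50 mV repolarization (2 s) that followed a 2 s +20 mV step, after a −50 mV leak pulse.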

[7] = JP 1st fluid, 25 °C, pH 1.2, simulated gastric fluid, kinetic from dmso stock, read-out: JP1
[8] = JP 2nd fluid A, 25 °C, pH 6.8, aqueous buffer, kinetic from dmso stock, read-out: JP2_μM
[9] = JP 1st fluid, pH 1.2, simulated gastric fluid, kinetic from dmso stock, read-out: JP1
[10] = JP 2nd fluid A, pH 6.8, aqueous buffer, kinetic from dmso stock, read-out: JP2_μM
[11] = solubility in JP 2nd fluid B, 1% DMSO, *2: shaken for 1 hour at room temperature, read-out: JP2_μM
[12] = JP 2nd fluid B, pH 6.8, aqueous buffer, kinetic from dmso stock, read-out: JP2_μM

T4 sequence (Q12809 whole entry): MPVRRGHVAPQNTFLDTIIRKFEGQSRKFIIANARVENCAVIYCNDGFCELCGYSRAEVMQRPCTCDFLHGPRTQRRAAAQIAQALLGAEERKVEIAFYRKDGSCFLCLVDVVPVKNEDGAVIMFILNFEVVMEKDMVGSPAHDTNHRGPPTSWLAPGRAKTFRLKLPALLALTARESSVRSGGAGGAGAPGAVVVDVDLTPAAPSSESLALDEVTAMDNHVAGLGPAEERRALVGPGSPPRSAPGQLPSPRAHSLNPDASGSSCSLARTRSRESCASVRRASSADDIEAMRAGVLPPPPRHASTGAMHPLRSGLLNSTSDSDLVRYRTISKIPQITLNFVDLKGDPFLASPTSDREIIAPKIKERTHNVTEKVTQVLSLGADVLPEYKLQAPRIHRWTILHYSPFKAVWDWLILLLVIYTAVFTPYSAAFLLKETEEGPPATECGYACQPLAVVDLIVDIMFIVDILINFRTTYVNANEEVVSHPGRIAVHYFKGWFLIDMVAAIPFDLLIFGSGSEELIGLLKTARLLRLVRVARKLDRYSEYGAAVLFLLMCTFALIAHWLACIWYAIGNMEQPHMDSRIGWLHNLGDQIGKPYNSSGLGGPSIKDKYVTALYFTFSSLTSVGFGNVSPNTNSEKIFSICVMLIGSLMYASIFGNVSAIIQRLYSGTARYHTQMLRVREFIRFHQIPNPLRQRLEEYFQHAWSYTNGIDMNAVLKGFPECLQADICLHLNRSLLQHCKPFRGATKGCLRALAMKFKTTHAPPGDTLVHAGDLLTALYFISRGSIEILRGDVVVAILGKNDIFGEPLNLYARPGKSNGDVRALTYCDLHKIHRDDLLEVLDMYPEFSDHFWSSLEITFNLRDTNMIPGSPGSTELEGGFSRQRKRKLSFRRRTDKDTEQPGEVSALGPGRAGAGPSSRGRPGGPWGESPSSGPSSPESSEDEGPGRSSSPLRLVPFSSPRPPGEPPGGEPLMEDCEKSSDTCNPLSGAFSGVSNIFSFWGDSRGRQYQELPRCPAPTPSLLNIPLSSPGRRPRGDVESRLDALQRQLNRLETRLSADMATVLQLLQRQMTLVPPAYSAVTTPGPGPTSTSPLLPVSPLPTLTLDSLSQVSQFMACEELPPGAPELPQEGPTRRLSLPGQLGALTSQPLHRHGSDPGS
T1 sequence (P08684 whole entry): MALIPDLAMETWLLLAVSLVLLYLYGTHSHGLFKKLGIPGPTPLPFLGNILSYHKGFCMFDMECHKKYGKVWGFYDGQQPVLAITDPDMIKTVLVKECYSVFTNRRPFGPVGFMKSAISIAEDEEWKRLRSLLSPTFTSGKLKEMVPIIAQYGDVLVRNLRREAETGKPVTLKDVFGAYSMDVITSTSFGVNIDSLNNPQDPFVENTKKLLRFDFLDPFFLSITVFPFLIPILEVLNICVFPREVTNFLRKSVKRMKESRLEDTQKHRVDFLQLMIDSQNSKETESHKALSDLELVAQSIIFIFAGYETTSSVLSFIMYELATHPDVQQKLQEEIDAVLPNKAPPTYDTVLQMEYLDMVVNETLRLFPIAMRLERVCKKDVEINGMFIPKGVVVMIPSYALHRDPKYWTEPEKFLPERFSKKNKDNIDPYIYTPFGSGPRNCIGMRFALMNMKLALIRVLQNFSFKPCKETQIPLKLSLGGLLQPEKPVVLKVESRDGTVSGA
T3 sequence (P33261 whole entry): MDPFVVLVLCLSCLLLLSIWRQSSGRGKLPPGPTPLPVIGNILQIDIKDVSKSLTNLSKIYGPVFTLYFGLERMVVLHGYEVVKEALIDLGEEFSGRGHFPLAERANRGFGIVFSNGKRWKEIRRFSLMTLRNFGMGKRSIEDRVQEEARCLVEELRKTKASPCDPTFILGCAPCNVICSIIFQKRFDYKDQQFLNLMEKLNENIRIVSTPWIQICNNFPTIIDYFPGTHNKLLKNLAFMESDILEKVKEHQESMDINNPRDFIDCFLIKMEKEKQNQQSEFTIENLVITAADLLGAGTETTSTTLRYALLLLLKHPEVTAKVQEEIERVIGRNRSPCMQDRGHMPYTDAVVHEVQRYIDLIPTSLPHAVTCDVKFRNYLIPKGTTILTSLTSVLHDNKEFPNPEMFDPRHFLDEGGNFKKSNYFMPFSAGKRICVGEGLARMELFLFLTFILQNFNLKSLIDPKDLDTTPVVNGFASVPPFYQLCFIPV

Row | SMILES | IC50 [1] | IC50 [2] | solubility kinetic at 16 h [3, 7] | solubility kinetic at 16 h [3, 8] | IC50 [4] | remaining % [5] | hERG_3 uM_% [6] | solubility kinetic at 1 h [3, 9] | solubility kinetic at 1 h [3, 10] | solubility kinetic at 16 h [3, 11] | solubility kinetic at 1 h [3, 12]
1 | C[C@H]1SC(N)=N[C@](C)(c2nc(NC(=O)c3ccc(C#N)cn3)ccc2F)[C@H]1F [Compound I-1] | ≥ 20 µM | ≥ 20 µM | > 50 µM | > 50 µM | ≥ 20 µM | 82.4% |  |  |  |  | 
2 | C[C@]1(c2nc(NC(=O)c3ccc(C#N)cn3)ccc2F)N=C(N)S[C@H](CF)[C@@H]1F [Compound I-4] | ≥ 20 µM | ≥ 20 µM | 35.8 µM (≈ 15.1 µg/mL) | > 50 µM | ≥ 20 µM |  | 47.9% |  |  |  | 
3 | COc1cnc(C(=O)Nc2ccc(F)c([C@@]3(C)N=C(N)S[C@H](C)[C@@H]3F)c2)cn1 [Compound I-8] | ≥ 20 µM | ≥ 20 µM | 46.4 µM (≈ 18.9 µg/mL) | > 50 µM | ≥ 20 µM |  | 16.7% |  |  |  | 
4 | C[C@]1(c2cc(NC(=O)c3ccc(C#N)cn3)ccc2F)N=C(N)O[C@H](CF)[C@@H]1OCC(F)(F)F [Compound I-10] | ≥ 20 µM | ≥ 20 µM | 40 µM (≈ 19.3 µg/mL) | > 50 µM | ≥ 20 µM | 95.6% |  |  |  |  | 
5 | COc1cnc(C(=O)Nc2ccc(F)c([C@@]3(C)N=C(N)O[C@H]([C@H](C)F)[C@@H]3F)c2)cn1 [Compound I-17] | ≥ 20 µM | ≥ 20 µM |  |  | ≥ 20 µM |  | 19.5% | 33.9 µM (≈ 14.4 µg/mL) | > 50 µM |  | 
6 | C[C@H]1[C@@H](C(F)(F)F)OC(N)=N[C@]1(C)c1cc(NC(=O)c2ccc(C#N)cn2)ccc1F [Compound I-28] | ≥ 20 µM | ≥ 20 µM | 40.4 µM (≈ 17.6 µg/mL) | > 50 µM | ≥ 20 µM |  | 36.2% |  |  |  | 
7 | C[C@H]1[C@@H](C(F)(F)F)OC(N)=N[C@]1(C)c1cc(NC(=O)c2cnc(OCF)cn2)ccc1F [Compound I-30] | ≥ 20 µM | ≥ 20 µM | 39.2 µM (≈ 18 µg/mL) | > 50 µM | ≥ 20 µM |  | 15.1% |  |  |  | 
8 | C[C@]1(c2cc(NC(=O)c3ccc(C#N)cn3)ccc2F)N=C(N)O[C@H]2[C@@H]1OCC2(F)F [Compound I-35] | ≥ 20 µM | ≥ 20 µM | > 50 µM | > 50 µM | ≥ 20 µM |  | 41.1% |  |  |  | 
9 | C[C@H]1SC(N)=N[C@](C)(c2cc(NC(=O)c3cnc(OCC(F)F)cn3)ccc2F)[C@H]1F [Compound I-48] | ≥ 20 µM | ≥ 20 µM |  |  | ≥ 20 µM | 92.9% |  | > 50 µM | 39.5 µM (≈ 18.1 µg/mL) |  | 
10 | COc1ccc(C(=O)Nc2ccc(F)c([C@@]3(C)N=C(N)S[C@H](C)[C@@H]3F)c2)nc1 [Compound I-50] | ≥ 20 µM | ≥ 20 µM |  |  | ≥ 20 µM |  | 34.3% | > 50 µM |  | >50 µM | 
11 | COc1cnc(C(=O)Nc2ccc(F)c([C@@]3(C)N=C(N)SCC34CC(F)(F)C4)c2)cn1 [Compound I-55] | ≥ 10 µM | ≥ 20 µM |  |  | ≥ 20 µM |  | 39.5% | > 50 µM |  | >50 µM | 
12 | C[C@]1(c2cc(NC(=O)c3ccc(C#N)cn3)ccc2F)N=C(N)SCC12CC(F)(F)C2 [Compound I-59] |  | ≥ 20 µM |  |  | ≥ 20 µM | 66.8% |  | > 50 µM |  | >50 µM | 
13 | C[C@H]1SC(N)=N[C@](C)(c2cc(NC(=O)c3cnc(OCF)cn3)ccc2F)C12CC(F)(F)C2 [Compound I-62] |  | ≥ 20 µM |  |  | ≥ 20 µM |  | 29.6% | > 50 µM |  | >50 µM | 
14 | CC#CCOc1cnc(C(=O)Nc2ccc(F)c([C@@]3(C)N=C(N)O[C@H](C(C)(F)F)[C@@H]3F)c2)cn1 [Compound I-76] |  | ≥ 20 µM |  |  | ≥ 10 µM |  | 5.8% | > 50 µM |  |  | 8.2 µM (≈ 3.93 µg/mL)
15 | C[C@]1(c2cc(NC(=O)c3ccc(C#N)cn3)ccc2F)N=C(N)O[C@H](C2(F)CC2)[C@@H]1F [Compound I-96] | ≥ 20 µM | ≥ 20 µM |  |  | ≥ 20 µM | 101% |  | 45.8 µM (≈ 19.7 µg/mL) |  |  | > 50 µM
16 | C[C@]1(c2cc(NC(=O)c3ccc(OCF)cn3)ccc2F)N=C(N)O[C@H](C2(F)CC2)[C@@H]1F [Compound I-101] | ≥ 20 µM | ≥ 20 µM |  |  | ≥ 20 µM | 91.8% |  | > 50 µM |  | >50.0 µM | 
17 | COc1cnc(C(=O)Nc2cccc([C@@]3(C)N=C(N)S[C@H](C)[C@@H]3F)c2)cn1 [Compound I-103] | ≥ 20 µM | ≥ 20 µM |  |  | ≥ 20 µM | 78.3% |  | 49.4 µM (≈ 19.2 µg/mL) |  |  | > 50 µM
18 | C[C@H]1SC(N)=N[C@](C)(c2cccc(NC(=O)c3cnc(OCF)cn3)c2)[C@H]1F [Compound I-104] | ≥ 20 µM | ≥ 20 µM |  |  | ≥ 20 µM | 77.7% |  | 40.6 µM (≈ 16.5 µg/mL) |  |  | > 50 µM
19 | C[C@H]1SC(N)=N[C@](C)(c2cccc(NC(=O)c3cnc(C(F)F)cn3)c2)[C@H]1F [Compound I-106] | ≥ 20 µM | ≥ 20 µM |  |  | ≥ 20 µM | 84.1% |  | 42 µM (≈ 17.2 µg/mL) |  |  | > 50 µM
